Source: article PMC4510645, “Discovery of intramolecular trans-sialidases in human gut microbiota suggests novel mechanisms of mucosal adaptation” (Nature Communications, 2015)
“Also recorded” adds a separate entry of the source.

Tests used:
RgNanH [1] = target: T1, RgNanH (Mediterraneibacter gnavus (Ruminococcus gnavus), UniProt A7B557); assay: Hydrolysis of sialic acid from glycoproteins monitored by 1H NMR; type: biochemical, Ruminococcus gnavus ATCC 29149; details: glycoprotein 1 mg ml^−1, 1 nM enzyme, 37 °C, pH 6.5, overnight
T1 sequence (A7B557 26-723): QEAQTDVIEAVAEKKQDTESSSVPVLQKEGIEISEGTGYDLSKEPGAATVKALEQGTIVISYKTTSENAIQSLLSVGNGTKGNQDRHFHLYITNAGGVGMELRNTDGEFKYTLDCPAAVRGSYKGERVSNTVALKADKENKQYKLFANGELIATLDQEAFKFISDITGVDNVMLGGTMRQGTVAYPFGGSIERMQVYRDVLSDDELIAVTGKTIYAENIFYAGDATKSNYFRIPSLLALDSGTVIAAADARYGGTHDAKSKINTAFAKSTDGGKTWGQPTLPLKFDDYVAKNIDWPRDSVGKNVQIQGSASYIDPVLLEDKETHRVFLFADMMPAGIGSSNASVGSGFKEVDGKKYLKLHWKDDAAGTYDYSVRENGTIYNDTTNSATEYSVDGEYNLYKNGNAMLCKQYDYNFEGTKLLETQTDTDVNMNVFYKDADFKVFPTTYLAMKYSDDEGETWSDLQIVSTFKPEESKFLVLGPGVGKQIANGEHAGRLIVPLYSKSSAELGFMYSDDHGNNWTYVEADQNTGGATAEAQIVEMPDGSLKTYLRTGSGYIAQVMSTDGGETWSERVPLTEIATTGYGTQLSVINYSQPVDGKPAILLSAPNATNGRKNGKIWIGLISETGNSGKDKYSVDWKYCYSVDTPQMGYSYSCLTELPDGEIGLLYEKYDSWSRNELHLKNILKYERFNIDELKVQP
Description: The ability of RgNanH to hydrolyse sialic acid from glycoproteins was investigated by incubation of the enzyme with human α-1-acid glycoprotein (AGP) and fetuin (Fet) both of which are known to contain α2-3 sialyl linkages, while asialo-Fet was also included as a control.
(§1) For specificity tests against sialylated oligosaccharides (1 mM) and glycoproteins (1 mg ml^−1), 1 nM of enzyme was incubated with the substrate at 37 °C, pH 6.5, overnight.
Extracts (400 μl) were mixed with 200 μl of D2O and 20 μl of a solution of D2O containing 1 mM of TSP (sodium 3-(trimethylsilyl)-propionate-d4). Samples (500 μl) were transferred into a 5-mm NMR tube for spectral acquisition. The ^1H NMR spectra were recorded at 600 MHz on a Bruker Avance spectrometer (Bruker BioSpin GmbH, Rheinstetten, Germany) running Topspin 2.0 software, and were fitted with a cryoprobe and a 60-slot autosampler. Each ^1H NMR spectrum was acquired with 128 scans, a spectral width of 8,012.8 Hz, an acquisition time of 2.04 s and a relaxation delay of 2.0 s. The ‘noesypr1d' presaturation sequence was used to suppress the residual water signal with a low-power selective irradiation at the water frequency during the recycle delay and a mixing time of 100 ms. Spectra were transformed with a 0.3-Hz line broadening, manually phased, baseline corrected and referenced by setting the TSP methyl signal to 0 p.p.m.

[2] = Spontaneous interconversion of 2,7-anhydro-Neu5Ac and Neu5Ac by 1H NMR; type: physicochemical; details: up to 24 h at 37 °C
Description: The products of the reaction were thus further monitored by ^1H nuclear magnetic resonance (NMR). […] (Fig. 3). These peaks are characteristic of 2,7-anhydro-α-N-acetylneuraminic acid (2,7-anhydro-Neu5Ac) and arise from the protons in positions 6 and 7 (Fig. 3a). Peaks corresponding to 2,7-anhydro-Neu5Ac were observed when RgNanH was incubated in presence of 4MU-Neu5Ac (Fig. 3a) or 3′SL (Fig. 3b). […] The signals of 2,7-anhydro-Neu5Ac and their chemical shifts are shown in Supplementary Table 1. This product was absent in control experiments using A. muciniphila sialidases (AkmNan0625 and AkmNan1835) or in absence of enzyme, confirming the specificity of the enzymatic reaction (Supplementary Fig. 5).
Extracts (400 μl) were mixed with 200 μl of D2O and 20 μl of a solution of D2O containing 1 mM of TSP (sodium 3-(trimethylsilyl)-propionate-d4). Samples (500 μl) were transferred into a 5-mm NMR tube for spectral acquisition. The ^1H NMR spectra were recorded at 600 MHz on a Bruker Avance spectrometer (Bruker BioSpin GmbH, Rheinstetten, Germany) running Topspin 2.0 software, and were fitted with a cryoprobe and a 60-slot autosampler. Each ^1H NMR spectrum was acquired with 128 scans, a spectral width of 8,012.8 Hz, an acquisition time of 2.04 s and a relaxation delay of 2.0 s. […]

[3] = tested on: AkmNan0625 and AkmNan1835; assay: Specificity against sialyl-oligosaccharides, HPAEC-PAD (control sialidases); type: biochemical, Akkermansia muciniphila; parameters: key to Activity AkmNan0625 and AkmNan1835: +: Activity was defined as disappearance of the substrate peak and appearance of a lower-molecular weight peak, which could correspond to the desialylated substrate; details: 37 °C; for Activity AkmNan0625 and AkmNan1835: substrate 1 mM, 1 nM enzyme, pH 6.5, overnight; for activity of AkmNan0625 and AkmNan1835 on substrate (in words): pH 6.5
Description: (§2) Figure 2 Specificity of RgNanH towards sialylated oligosaccharides. The enzymes were incubated with sialylated substrates at 37 °C, pH 6.5, overnight and the reaction products were analysed by HPAEC-PAD. Control reactions without enzyme were also performed. The injection peak is marked (inj). Glycerol (gly) was also present in AkmNan0625. (a) Standards (Lac, Neu5Ac, 3′SL and 6′SL), (b) 3′SL, (c) 6′SL and (d) 3'-α-sialyl-N-acetyllactosamine (3′SLacNAc). AkmNan1835 has a similar profile to […].
All chemicals were obtained from Sigma (St Louis, USA) unless otherwise stated. The A. muciniphila sialidases, termed here AkmNan0625 and AkmNan1835, were obtained by His-Tag overexpression of their genes (Amuc_0625 and Amuc_1835, respectively)[56] in E. coli BL21(DE3) and subsequent purification to homogeneity by immobilized metal affinity chromatography as described below. The sialylated oligosaccharides and OC were obtained from Carbosynth (Berks, UK).
(§3) The purified enzymes were incubated with the substrate in buffer made from 20 mM Na2HPO4 and 20 mM NaH2PO4 adjusted to pH 6.5 containing 1 mg ml^−1 BSA at 37 °C unless otherwise stated. For 4MU-Neu5Ac, the progression of the reaction was monitored by the release of the MU using a 96-well plate reader (BMG Labtech, Ortenberg, Germany) using fluorescence with an excitation at 340 nm and an emission at 420 nm. For determining the optimal temperature, the assay was carried out in 20 mM PBS at pH 7.4. For determining the optimal pH, the assay was carried out at 37 °C using buffer made from 20 mM Na2HPO4 and 20 mM NaH2PO4 in varying proportions to obtain the desired pH. PNP release from PNP-Neu5Ac was monitored in a similar way measuring absorbance at 405 nm every 60 s. For 3′SL, the reaction was monitored by HPAEC-PAD. An aliquot of the reaction was removed from the main reaction volume at the reaction stopped by boiling for 20 min, the enzyme was then removed by centrifugation at 17,000g for 10 min and filtration with a 0.2-μm filter (Millipore, Billerica, USA). The sugars were separated by HPAEC with an isocratic gradient of 100 mM NaOH and 100 mM NaAC at 1 ml min^−1 on a CarboPac PA1 protected with a guard column and detected using PAD on a Dionex ICS5000 system (Thermo Scientific, Hemel Hempstead, UK). The column was cleaned with 10 ml of 500 mM NaOH and 500 mM NaAc, and the column was re-equilibrated with 100 mM NaOH and 100 mM NaAc. An internal standard of fucose was used to quantify the results.
as §1

RgNanH [4] = target: T1, RgNanH; assay: Specificity against sialyl-oligosaccharides, HPAEC-PAD; type: biochemical, Ruminococcus gnavus ATCC 29149; parameters: key to Activity RgNanH: +: Activity was defined as disappearance of the substrate peak and appearance of a lower-molecular weight peak, which could correspond to the desialylated substrate; details: 37 °C; for Activity RgNanH: substrate 1 mM, 1 nM enzyme, pH 6.5, overnight
Description: as §2, §3, §1

R. gnavus ATCC 29149 = tested on: R. gnavus ATCC 29149; parameters: method as in PMID 24204617; details: R. gnavus ATCC 29149; cited from earlier work
RgNanH [5] = target: T1, RgNanH; assay: Inhibition of RgNanH activity against 4MU-Neu5Ac by neuraminidase inhibitors; type: biochemical, Ruminococcus gnavus ATCC 29149; details: 4MU-Neu5Ac 0.51 mM, 1 nM enzyme; Neu5Ac 0-0.3 mM, Lac 0-1.5 mM; pH 6.5, 37 °C
Description: Figure 1 Kinetic analysis of the hydrolysis of sialylated substrates by RgNanH in presence or absence of inhibitors. Substrate (a) 4MU-Neu5Ac or (b) PNP-Neu5Ac was incubated with RgNanH ([…] and 0.43 nM, respectively) at 37 °C, pH 6.5 and the release of product measured using a plate reader. (c) Inhibition of RgNanH (1.00 nM) incubated with 4MU-Neu5Ac (0.51 mM) by zanamivir (●), Neu5Ac2en (▪), siastatin B (▴) and OC (♦), the rates are normalized to a % of the uninhibited rate. [I] is the inhibitor concentration. (d) 3′SL was incubated with RgNanH (2.25 nM) and the release of product measured by HPAEC-PAD. Experiments were done at least in duplicate (usually triplicate) and the error bars show the s.e.m.
as §3, with “results. […]” for “results.”

RgNanH [6] = target: T1, RgNanH; assay: Kinetic parameters of RgNanH with sialylated substrates; type: biochemical, Ruminococcus gnavus ATCC 29149; details: pH 6.5, 37 °C
Description: as §3
For 4MU-Neu5Ac and 3′SL, the rate of hydrolysis without enzyme was not significant, thus raw data were used. However, for pNP-Neu5Ac, the rate of hydrolysis without enzyme was significant, thus the rate with enzyme was corrected by the subtraction of the rate without enzyme at each concentration of substrate. For 3′SL, the rate of reaction was calculated by plotting the amount of substrate remaining over the course of >50 % of the reaction using the following equation[58]: […]
Where k is kcat/KM × enzyme concentration, t is time, [S0] and [St] are substrate concentrations at time 0 and t, respectively.
Kinetic data were obtained from at least duplicate (usually triplicate) experiments, and the kinetic parameters were calculated by fitting the initial raw data to the Michaelis–Menten equation using a nonlinear regression analysis programme (Prism 6, GraphPad, San Diego, USA), and error bars (s.e.m.) are shown.

## AGP: human α-1-acid glycoprotein, known to contain α2-3 sialyl linkages
RgNanH [1]
  activity of RgNanH against glycoprotein (2,7-anhydro-Neu5Ac peaks by 1H NMR): showed activity
RgNanH [1]; listed as α-1-AGP
  activity of RgNanH against glycoprotein (2,7-anhydro-Neu5Ac peaks by 1H NMR): substrates

## Fet: fetuin, glycoprotein known to contain α2-3 sialyl linkages
RgNanH [1]
  activity of RgNanH against glycoprotein (2,7-anhydro-Neu5Ac peaks by 1H NMR): showed activity; also recorded: substrates

## CC(=O)N[C@H]1[C@H]2O[C@@](C(=O)O)(C[C@@H]1O)O[C@@H]2[C@H](O)CO [2,7-anhydro-Neu5Ac, 2,7-anhydro-α-N-acetylneuraminic acid]
[2]
  spontaneous conversion between 2,7-anhydro-Neu5Ac and Neu5Ac: no spontaneous conversion

## Neu5Ac-α-2-3-Gal-β-1-4-GlcNAc [3′-α-Sialyl-N-acetyllactosamine]
[3]
  Activity AkmNan0625 and AkmNan1835: +
RgNanH [4]
  Activity RgNanH: +

## OC[C@H]1O[C@@H](O[C@H]2[C@H](O)[C@@H](O)C(O)O[C@@H]2CO)[C@H](O)[C@@H](O)[C@H]1O (mixture of isomers) [lactose]
R. gnavus ATCC 29149
  ability of the bacteria to grow on the substrate: not
RgNanH [5]
  Inhibition of RgNanH: not inhibited

## Neu5Ac-α-2-3-Gal-β-1-4-Glc [3′SL]
R. gnavus ATCC 29149
  ability of the bacteria to grow on the substrate: grow
RgNanH [6]; substrate inhibition, s.e.m.
  Ki: 760 ± 230 µM
RgNanH [6]; substrate of RgNanH
  kcat: 0.4283 s⁻¹
RgNanH [6]; substrate of RgNanH, s.e.m.
  KM: below detection limit
  Km: < 100 µM
  Vmax: 0.0566 ± 0.0057 µM/min
[3]
  activity of AkmNan0625 and AkmNan1835 on substrate (in words): active
  Activity AkmNan0625 and AkmNan1835: +
RgNanH [4]
  Activity RgNanH: +

## Neu5Ac-α-2-6-Gal-β1-4-Glc [6′SL]
R. gnavus ATCC 29149
  ability of the bacteria to grow on the substrate: not
[3]
  activity of AkmNan0625 and AkmNan1835 on substrate (in words): active
  Activity AkmNan0625 and AkmNan1835: +
RgNanH [4]; pH 6.5
  enzymatic activity of RgNanH on substrate (in words): no enzymatic activity

## asialo-Fet: asialo-fetuin, included as a control
RgNanH [1]
  activity of RgNanH against glycoprotein (2,7-anhydro-Neu5Ac peaks by 1H NMR): no change
